Data as given in patent US20080138411A1, “Modified Release Formulations Of Selective Serotonin Re-Uptake Inhibitors” (priority 2002, published 2008).
Structures can show the parent of a compound that is named as a salt. Where two headings read alike, the source gives them in different places.

Tests used:
[1] = cited from earlier work
[2] = Particle size measurement of Citalopram HBr, Paroxetine HCl and Fluoxetine HCl; type: physicochemical; conditions: for D (v, 0.9) / D (v. 0.1) / Mean, D [4, 3] / Median, D (v, 0.5) / Span / Uniformity: Dispersed in air, Distribution Type: Volume
Procedure: Particle size measurements were conducted on Paroxetine HCl.

[3] = cited from earlier work; remark: listed apart in the source
[4] = cited from earlier work; remark: listed apart in the source
[5] = cited from earlier work; remark: listed apart in the source
[6] = 30 mg tablets daily for 30 days, normal male subjects
[7] = 30 mg tablets daily for 30 days
[8] = single dose with and without food

CN(C)CCCC1(c2ccc(F)cc2)OCc2cc(C#N)ccc21 (racemic) [Citalopram, (RS)-1-[3-(dimethylamino)propyl]-1-(4-fluorophenyl)-5-phthalancarbonitrile hydrobromide]
absolute bioavailability ([1]; relative to an intravenous dose): about 80%
time at which peak blood levels occur ([1]; single oral dose (40 mg tablet)): about 4 hours

Br.CN(C)CCCC1(c2ccc(F)cc2)OCc2cc(C#N)ccc21 (centres unmarked) [Citalopram HBr Provided by Supplier 1]
Dia.on % (10.0%) ([2]; Dist. Base: Volume): 3.267 µm
Dia.on % (20.0%) ([2]; Dist. Base: Volume): 4.606 µm
Dia.on % (35.0%) ([2]; Dist. Base: Volume): 6.212 µm
Dia.on % (70.0%) ([2]; Dist. Base: Volume): 10.295 µm
Dia.on % (90.0%) ([2]; Dist. Base: Volume): 14.874 µm
Particle size, C.V. ([2]; Dist. Base: Volume): 54.90%
Particle size, Mean ([2]; Dist. Base: Volume): 8.569 µm
Particle size, Median ([2]; Dist. Base: Volume): 7.781 µm
Particle size, Mode ([2]; Dist. Base: Volume): 8,253 µm
SP. Area ([2]; Dist. Base: Volume): 10290 cm^2/cm^2
Span: (D 20.0-D 10.0)/D50 ([2]; Dist. Base: Volume): Span: (D 20.0-D 10.0)/D50 = 0.172

Br.CN(C)CCCC1(c2ccc(F)cc2)OCc2cc(C#N)ccc21 (centres unmarked) [Citalopram HBr Provided by Supplier 2]
D (v, 0.9) [2]: 1191.10 µm
D (v. 0.1) [2]: 1.62 µm
Mean, D [4, 3] [2]: Mean, D [4, 3] = 259.27 µm
Median, D (v, 0.5) [2]: 7.27 µm
Span [2]: Span = 1.637E+02
Uniformity [2]: Uniformity = 3.518E+01

CN(C)CCC[C@@]1(c2ccc(F)cc2)OCc2cc(C#N)ccc21 [Escitalopram, S-(+)-1-[3-(dimethyl-amino)propyl]-1-(β-fluorophenyl)-5-phthalancarbonitrile oxalate]
single and multiple dose pharmacokinetics ([3]; dose range of 10 to 30 mg per day): linear and dose proportional
mean Tmax ([3]; single oral dose (20 mg tablet)): 5 ± 1.5 h

CNCCC(Oc1ccc(C(F)(F)F)cc1)c1ccccc1.Cl (centres unmarked) [Fluoxetine HCl Provided by Supplier 1]
Dia.on % (10.0%) ([2]; Dist. Base: Volume): 7.877 µm
Dia.on % (20.0%) ([2]; Dist. Base: Volume): 10.941 µm
Dia.on % (35.0%) ([2]; Dist. Base: Volume): 15.114 µm
Dia.on % (70.0%) ([2]; Dist. Base: Volume): 29.4885 µm
Dia.on % (90.0%) ([2]; Dist. Base: Volume): 118.199 µm
Particle size, C.V. ([2]; Dist. Base: Volume): 161.24%
Particle size, Mean ([2]; Dist. Base: Volume): 45.505 µm
Particle size, Median ([2]; Dist. Base: Volume): 19.672 µm
SP. Area ([2]; Dist. Base: Volume): 3861 cm^2/cm^2

CNCCC(Oc1ccc(C(F)(F)F)cc1)c1ccccc1.Cl (centres unmarked) [Fluoxetine HCl Provided by Supplier 2]
Dia.on % (10.0%) ([2]; Dist. Base: Volume): 5.668 µm
Dia.on % (20.0%) ([2]; Dist. Base: Volume): 9.337 µm
Dia.on % (35.0%) ([2]; Dist. Base: Volume): 14.546 µm
Dia.on % (70.0%) ([2]; Dist. Base: Volume): 42.5575 µm
Dia.on % (90.0%) ([2]; Dist. Base: Volume): 296.388 µm
Particle size, C.V. ([2]; Dist. Base: Volume): 144.70%
Particle size, Mean ([2]; Dist. Base: Volume): 86.383 µm
Particle size, Median ([2]; Dist. Base: Volume): 20.638 µm
SP. Area ([2]; Dist. Base: Volume): 5004 cm^2/cm^2

Fc1ccc([C@@H]2CCNC[C@H]2COc2ccc3c(c2)OCO3)cc1 [Paroxetine, (−)-trans-4R-(4′-fluorophenyl)-3S[(3′,4′-methylenedioxyphenoxy)methyl]piperidine hydrochloride (hemihydrate)]
D (v, 0.9) [2]: D (v, 0.9) = 16.56 µm
D (v. 0.1) [2]: D (v. 0.1) = 0.85 […]mMedian,
Mean, D [4, 3] [2]: Mean, D [4, 3] = 11.02 µm
Median, D (v, 0.5) [2]: D (v, 0.5) = 4.44 µm
Span [2]: Span = 3.541E+00
Uniformity [2]: Uniformity = 1.980E+00
Cmax at steady state, mean [4, 6]: 61.7 ng/mL
Cmin at steady state, mean [4, 6]: 30.7 ng/mL
Tmax at steady state, mean [4, 6]: 5.2 h
t1/2 at steady state, mean [4, 6]: 21.0 h
steady state Cmax relative to prediction from single dose studies [4, 7]: about 6 times
steady state Cmin relative to prediction from single dose studies [4, 7]: ~14 times
steady state drug exposure based on AUC0-24 relative to prediction from single dose data [4, 7]: about 8 times
time to steady state Paroxetine concentrations ([4]; 30 mg tablets daily, most subjects): approximately 10 days
increase of AUC when administered with food [4, 8]: 6%
increase of Cmax when administered with food [4, 8]: 29%
time to reach peak plasma concentration ([4]; single dose with food): 4.9 h
time to reach peak plasma concentration ([4]; single dose without food): 6.4 h

CN[C@H]1CC[C@@H](c2ccc(Cl)c(Cl)c2)c2ccccc21.Cl [Sertraline, (1S-cis)-4(3,4-dichlorophenyl)-1,2,3,4-tetrahydro-N-methyl-1-naphthalenamine hydrochloride]
Tmax ([5]; oral concentrate, single dose with food): 7.0 h
increase of Cmax with food ([5]; tablet, single dose with and without food): 25%
